Reference: the kinase profiling compilation of Christmann-Franck et al. (2016)

Assays:
Assay in all cases: split-luciferase competition binding
AKT1 (human) = AKT1 (human) (UniProt P31749); conditions: compound 10.0 µM
AKT2 (human) = AKT2 (human) (UniProt P31751); conditions: compound 10.0 µM
AKT3 (human) = AKT3 (human) (UniProt Q9Y243); conditions: compound 10.0 µM
AURKA (human) = AURKA (human) (UniProt O14965); conditions: compound 10.0 µM
AURKB (human) = AURKB (human) (UniProt Q96GD4); conditions: compound 10.0 µM
AURKC (human) = AURKC (human) (UniProt Q9UQB9); conditions: compound 10.0 µM
DMPK (human) = DMPK (human) (UniProt Q09013); conditions: compound 10.0 µM
PDPK1 (human) = PDPK1 (human) (UniProt O15530); conditions: compound 10.0 µM
PKN1 (human) = PKN1 (human) (UniProt Q16512); conditions: compound 10.0 µM
PRKACA (mouse) = conditions: compound 10.0 µM; accession and sequence are those of the human protein
PRKACB (human) = PRKACB (human) (UniProt P22694); conditions: compound 10.0 µM
PRKCD (human) = PRKCD (human) (UniProt Q05655); conditions: compound 10.0 µM
PRKCE (human) = PRKCE (human) (UniProt Q02156); conditions: compound 10.0 µM
PRKCG (human) = PRKCG (human) (UniProt P05129); conditions: compound 10.0 µM
PRKCH (human) = PRKCH (human) (UniProt P24723); conditions: compound 10.0 µM
PRKCI (human) = PRKCI (human) (UniProt P41743); conditions: compound 10.0 µM
PRKCQ (human) = PRKCQ (human) (UniProt Q04759); conditions: compound 10.0 µM
PRKX (human) = PRKX (human) (UniProt P51817); conditions: compound 10.0 µM
RPS6KA1 KD1 (human) = RPS6KA1 KD1 (human) (UniProt Q15418); conditions: compound 10.0 µM
RPS6KA2 KD1 (human) = RPS6KA2 KD1 (human) (UniProt Q15349); conditions: compound 10.0 µM
RPS6KA3 KD1 (human) = RPS6KA3 KD1 (human) (UniProt P51812); conditions: compound 10.0 µM
RPS6KA4 KD1 (human) = RPS6KA4 KD1 (human) (UniProt O75676); conditions: compound 10.0 µM
RPS6KA5 KD1 (human) = RPS6KA5 KD1 (human) (UniProt O75582); conditions: compound 10.0 µM
RPS6KA6 KD1 (human) = RPS6KA6 KD1 (human) (UniProt Q9UK32); conditions: compound 10.0 µM
SGK2 (human) = SGK2 (human) (UniProt Q9HBY8); conditions: compound 10.0 µM
SGK3 (human) = SGK3 (human) (UniProt Q96BR1); conditions: compound 10.0 µM
STK32B (human) = STK32B (human) (UniProt Q9NY57); conditions: compound 10.0 µM
Chain of STK32B (human) (Q9NY57 whole entry, looked up): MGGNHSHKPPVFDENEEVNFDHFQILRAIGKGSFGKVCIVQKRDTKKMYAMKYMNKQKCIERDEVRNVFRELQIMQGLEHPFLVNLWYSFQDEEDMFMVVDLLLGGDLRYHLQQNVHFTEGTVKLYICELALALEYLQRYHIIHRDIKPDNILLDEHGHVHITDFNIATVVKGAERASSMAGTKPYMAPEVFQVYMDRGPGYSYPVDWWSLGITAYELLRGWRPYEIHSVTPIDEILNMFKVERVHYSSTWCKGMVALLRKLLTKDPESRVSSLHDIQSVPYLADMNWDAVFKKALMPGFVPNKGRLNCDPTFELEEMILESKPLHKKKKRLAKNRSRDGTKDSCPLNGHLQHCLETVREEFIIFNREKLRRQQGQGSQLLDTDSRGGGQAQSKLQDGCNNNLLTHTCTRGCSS

Chain of AURKB (human) (Q96GD4 whole entry, looked up): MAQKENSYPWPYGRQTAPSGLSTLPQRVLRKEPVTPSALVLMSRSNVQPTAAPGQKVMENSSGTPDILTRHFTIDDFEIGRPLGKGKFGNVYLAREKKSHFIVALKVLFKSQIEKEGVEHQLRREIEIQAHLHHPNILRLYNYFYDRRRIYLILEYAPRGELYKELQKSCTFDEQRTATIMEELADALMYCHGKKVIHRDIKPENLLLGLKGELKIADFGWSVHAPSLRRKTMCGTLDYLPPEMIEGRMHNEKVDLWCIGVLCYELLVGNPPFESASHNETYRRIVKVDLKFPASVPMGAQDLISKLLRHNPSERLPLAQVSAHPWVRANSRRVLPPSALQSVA
Chain of PDPK1 (human) (O15530 whole entry, looked up): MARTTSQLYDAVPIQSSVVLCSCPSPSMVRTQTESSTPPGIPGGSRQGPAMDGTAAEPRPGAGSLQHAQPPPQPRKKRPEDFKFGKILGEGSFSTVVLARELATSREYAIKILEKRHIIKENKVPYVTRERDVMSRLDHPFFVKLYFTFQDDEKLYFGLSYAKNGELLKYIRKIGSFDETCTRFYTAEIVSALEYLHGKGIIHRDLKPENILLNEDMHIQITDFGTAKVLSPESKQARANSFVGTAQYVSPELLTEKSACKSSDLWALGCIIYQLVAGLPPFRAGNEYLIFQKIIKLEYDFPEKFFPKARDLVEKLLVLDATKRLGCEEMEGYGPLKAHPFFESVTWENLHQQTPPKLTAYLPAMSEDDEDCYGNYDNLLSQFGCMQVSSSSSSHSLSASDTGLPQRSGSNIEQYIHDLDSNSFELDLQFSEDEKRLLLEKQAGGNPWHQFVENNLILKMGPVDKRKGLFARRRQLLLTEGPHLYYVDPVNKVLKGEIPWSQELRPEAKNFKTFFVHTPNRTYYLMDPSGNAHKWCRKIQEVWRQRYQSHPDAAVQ
Chain of PRKX (human) (P51817 whole entry, looked up): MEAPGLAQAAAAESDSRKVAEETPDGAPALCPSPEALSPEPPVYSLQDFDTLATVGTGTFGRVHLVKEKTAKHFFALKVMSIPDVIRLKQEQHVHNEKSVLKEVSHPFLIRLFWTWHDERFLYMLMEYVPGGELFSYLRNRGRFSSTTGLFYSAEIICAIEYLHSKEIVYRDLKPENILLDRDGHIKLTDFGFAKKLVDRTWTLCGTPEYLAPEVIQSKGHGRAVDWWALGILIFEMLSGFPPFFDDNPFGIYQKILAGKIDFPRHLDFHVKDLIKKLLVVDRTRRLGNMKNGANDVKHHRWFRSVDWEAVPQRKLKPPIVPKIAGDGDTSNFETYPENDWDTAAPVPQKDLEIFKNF
Chain of SGK2 (human) (Q9HBY8 whole entry, looked up): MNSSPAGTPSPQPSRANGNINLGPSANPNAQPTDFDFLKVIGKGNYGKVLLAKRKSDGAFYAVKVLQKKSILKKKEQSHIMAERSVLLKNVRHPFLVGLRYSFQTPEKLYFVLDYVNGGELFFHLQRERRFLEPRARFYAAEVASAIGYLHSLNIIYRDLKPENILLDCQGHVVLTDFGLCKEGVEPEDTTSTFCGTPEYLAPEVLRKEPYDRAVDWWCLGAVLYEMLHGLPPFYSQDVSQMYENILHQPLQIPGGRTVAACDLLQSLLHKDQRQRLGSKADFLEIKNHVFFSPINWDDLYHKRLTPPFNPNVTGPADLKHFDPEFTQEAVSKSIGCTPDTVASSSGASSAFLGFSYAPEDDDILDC
Chain of RPS6KA5 KD1 (human) (O75582 whole entry, looked up): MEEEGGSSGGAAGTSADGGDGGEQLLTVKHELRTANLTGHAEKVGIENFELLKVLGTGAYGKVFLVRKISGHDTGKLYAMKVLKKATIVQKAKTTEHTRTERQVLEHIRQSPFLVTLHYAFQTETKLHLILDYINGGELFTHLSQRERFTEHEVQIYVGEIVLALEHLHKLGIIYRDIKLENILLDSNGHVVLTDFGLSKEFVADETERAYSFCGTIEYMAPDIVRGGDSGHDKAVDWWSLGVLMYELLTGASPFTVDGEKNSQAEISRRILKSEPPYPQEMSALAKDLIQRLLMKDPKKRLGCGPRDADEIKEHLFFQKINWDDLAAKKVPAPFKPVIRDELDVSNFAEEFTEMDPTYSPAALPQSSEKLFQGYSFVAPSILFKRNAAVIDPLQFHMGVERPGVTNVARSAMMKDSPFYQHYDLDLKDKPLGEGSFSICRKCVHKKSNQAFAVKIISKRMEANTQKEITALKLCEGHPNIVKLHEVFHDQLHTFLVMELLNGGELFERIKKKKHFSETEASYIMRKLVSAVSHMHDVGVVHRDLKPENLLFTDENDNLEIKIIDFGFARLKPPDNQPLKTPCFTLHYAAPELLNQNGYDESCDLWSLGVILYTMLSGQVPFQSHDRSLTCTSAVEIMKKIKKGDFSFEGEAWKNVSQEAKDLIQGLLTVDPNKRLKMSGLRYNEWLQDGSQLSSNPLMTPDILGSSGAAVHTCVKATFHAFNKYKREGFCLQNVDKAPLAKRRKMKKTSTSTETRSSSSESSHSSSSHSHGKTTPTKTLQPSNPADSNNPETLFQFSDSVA
Chain of PKN1 (human) (Q16512 whole entry, looked up): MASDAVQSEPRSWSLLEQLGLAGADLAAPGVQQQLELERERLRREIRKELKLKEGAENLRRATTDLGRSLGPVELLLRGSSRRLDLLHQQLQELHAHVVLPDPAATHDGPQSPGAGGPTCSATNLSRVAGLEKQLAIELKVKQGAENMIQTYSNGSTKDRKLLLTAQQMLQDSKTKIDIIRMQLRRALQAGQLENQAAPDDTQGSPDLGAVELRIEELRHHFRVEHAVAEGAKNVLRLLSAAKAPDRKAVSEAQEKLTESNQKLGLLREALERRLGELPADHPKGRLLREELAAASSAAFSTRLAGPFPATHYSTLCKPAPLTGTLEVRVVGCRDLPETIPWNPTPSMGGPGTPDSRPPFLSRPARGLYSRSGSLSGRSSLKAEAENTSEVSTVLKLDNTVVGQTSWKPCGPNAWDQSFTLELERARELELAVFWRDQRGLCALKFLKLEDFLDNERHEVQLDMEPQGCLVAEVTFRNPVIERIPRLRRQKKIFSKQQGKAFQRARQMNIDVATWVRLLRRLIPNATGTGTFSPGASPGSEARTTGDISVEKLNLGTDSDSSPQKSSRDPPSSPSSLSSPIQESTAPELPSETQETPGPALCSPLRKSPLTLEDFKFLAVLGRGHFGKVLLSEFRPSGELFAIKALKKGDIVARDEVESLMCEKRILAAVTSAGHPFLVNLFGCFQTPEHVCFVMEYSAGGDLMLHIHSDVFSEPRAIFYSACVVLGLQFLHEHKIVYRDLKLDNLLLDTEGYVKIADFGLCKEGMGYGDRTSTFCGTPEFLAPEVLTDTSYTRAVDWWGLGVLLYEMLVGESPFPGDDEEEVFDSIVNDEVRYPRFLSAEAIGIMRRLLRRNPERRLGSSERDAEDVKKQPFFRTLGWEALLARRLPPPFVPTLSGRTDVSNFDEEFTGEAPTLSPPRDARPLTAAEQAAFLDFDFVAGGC
Chain of PRKCI (human) (P41743 whole entry, looked up): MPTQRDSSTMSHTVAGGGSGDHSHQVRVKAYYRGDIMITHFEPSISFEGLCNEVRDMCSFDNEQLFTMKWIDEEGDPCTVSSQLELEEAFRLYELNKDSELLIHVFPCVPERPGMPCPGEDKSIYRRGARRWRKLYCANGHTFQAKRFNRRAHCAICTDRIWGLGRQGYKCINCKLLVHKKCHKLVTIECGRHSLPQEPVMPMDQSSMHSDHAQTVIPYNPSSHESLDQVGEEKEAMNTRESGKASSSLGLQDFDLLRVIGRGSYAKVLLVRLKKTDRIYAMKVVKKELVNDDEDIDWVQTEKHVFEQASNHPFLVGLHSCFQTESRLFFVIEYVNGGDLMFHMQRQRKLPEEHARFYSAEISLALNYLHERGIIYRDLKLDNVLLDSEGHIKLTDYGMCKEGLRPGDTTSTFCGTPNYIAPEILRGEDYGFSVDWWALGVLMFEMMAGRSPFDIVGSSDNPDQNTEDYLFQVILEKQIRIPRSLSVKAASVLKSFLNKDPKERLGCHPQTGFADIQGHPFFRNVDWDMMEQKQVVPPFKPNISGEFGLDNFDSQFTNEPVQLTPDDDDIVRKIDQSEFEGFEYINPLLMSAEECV
Chain of AURKC (human) (Q9UQB9 whole entry, looked up): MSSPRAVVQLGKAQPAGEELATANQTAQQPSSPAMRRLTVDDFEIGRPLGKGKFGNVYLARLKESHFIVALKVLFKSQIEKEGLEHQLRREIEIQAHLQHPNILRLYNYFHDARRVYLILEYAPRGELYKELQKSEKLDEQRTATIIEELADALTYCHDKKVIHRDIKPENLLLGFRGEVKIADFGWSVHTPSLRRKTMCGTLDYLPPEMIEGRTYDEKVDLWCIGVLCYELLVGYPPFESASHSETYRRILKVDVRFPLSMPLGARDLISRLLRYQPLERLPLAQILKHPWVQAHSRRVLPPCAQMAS

| inhibition (AKT1 (human)) | inhibition (AKT2 (human)) | inhibition (AKT3 (human)) | inhibition (AURKA (human)) | inhibition (AURKB (human)) | inhibition (AURKC (human)) | inhibition (DMPK (human)) | inhibition (PDPK1 (human)) | inhibition (PKN1 (human)) | inhibition (PRKACA (mouse)) | inhibition (PRKACB (human)) | inhibition (PRKCD (human)) | inhibition (PRKCE (human)) | inhibition (PRKCG (human)) | inhibition (PRKCH (human)) | inhibition (PRKCI (human)) | inhibition (PRKCQ (human)) | inhibition (PRKX (human)) | inhibition (RPS6KA1 KD1 (human)) | inhibition (RPS6KA2 KD1 (human)) | Structure (SMILES) | further results |
| --- | --- | --- | --- | --- | --- | --- | --- | --- | --- | --- | --- | --- | --- | --- | --- | --- | --- | --- | --- | --- | --- |
| 0% | 0% | 0% | 0% | 0% | 0% | 0% | 0% | 0% | 0% | 0% | 0% | 0% | 0% | 0% | 3% | 0% | 0% | 0% | 0% | N#CC(=C(\N)Sc1ccccc1N)/C(C#N)=C(/N)Sc1ccccc1N | inhibition (RPS6KA3 KD1 (human)): 0%; inhibition (RPS6KA4 KD1 (human)): 0%; inhibition (RPS6KA5 KD1 (human)): 0%; inhibition (RPS6KA6 KD1 (human)): 0%; inhibition (SGK2 (human)): 0%; inhibition (SGK3 (human)): 0%; inhibition (STK32B (human)): 0% |
| 0% | 0% | 0% | 0% | 0% | 5% | 0% | 0% | 0% | 0% | 0% | 0% | 6% | 0% | 0% | 0% | 0% | 0% | 0% | 0% | O=c1cc(N2CCOCC2)nc2c3ccccc3ccn12 | inhibition (RPS6KA3 KD1 (human)): 0%; inhibition (RPS6KA4 KD1 (human)): 0%; inhibition (RPS6KA5 KD1 (human)): 0%; inhibition (RPS6KA6 KD1 (human)): 0%; inhibition (SGK2 (human)): 0%; inhibition (SGK3 (human)): 0%; inhibition (STK32B (human)): 0% |
| 3% | 0% | 0% | 0% | 14% | 16% | 2% | 0% | 1% | 9% | 1% | 0% | 6% | 0% | 13% | 0% | 17% | 24% | 0% | 0% | Nc1ncnc2[nH]nc(Nc3ccc(F)cc3)c12 | inhibition (RPS6KA3 KD1 (human)): 0%; inhibition (RPS6KA4 KD1 (human)): 0%; inhibition (RPS6KA5 KD1 (human)): 0%; inhibition (RPS6KA6 KD1 (human)): 0%; inhibition (SGK2 (human)): 9%; inhibition (SGK3 (human)): 23%; inhibition (STK32B (human)): 42% |
| 0% | 0% | 0% | 0% | 0% | 0% | 0% | 0% | 2% | 0% | 0% | 0% | 0% | 0% | 0% | 0% | 0% | 0% | 0% | 0% | C=CC(=O)c1ccc2ccccc2c1 | inhibition (RPS6KA3 KD1 (human)): 0%; inhibition (RPS6KA4 KD1 (human)): 0%; inhibition (RPS6KA5 KD1 (human)): 0%; inhibition (RPS6KA6 KD1 (human)): 0%; inhibition (SGK2 (human)): 0%; inhibition (SGK3 (human)): 0%; inhibition (STK32B (human)): 0% |
| 0% | 0% | 0% | 0% | 8% | 10% | 3% | 0% | 3% | 6% | 0% | 0% | 0% | 0% | 0% | 0% | 0% | 6% | 0% | 4% | CN1CCC(Nc2ncc3ncnc(Nc4ccc(F)c(Cl)c4)c3n2)CC1 | inhibition (RPS6KA3 KD1 (human)): 0%; inhibition (RPS6KA4 KD1 (human)): 0%; inhibition (RPS6KA5 KD1 (human)): 0%; inhibition (RPS6KA6 KD1 (human)): 0%; inhibition (SGK2 (human)): 0%; inhibition (SGK3 (human)): 0%; inhibition (STK32B (human)): 0% |
| 0% | 0% | 0% | 4% | 6% | 0% | 0% | 0% | 12% | 0% | 1% | 6% | 0% | 9% | 0% | 0% | 6% | 11% | 0% | 0% | COc1nccc(-c2c(-c3ccc(F)cc3)ncn2[C@H]2CC[C@H](O)CC2)n1 | inhibition (RPS6KA3 KD1 (human)): 0%; inhibition (RPS6KA4 KD1 (human)): 0%; inhibition (RPS6KA5 KD1 (human)): 0%; inhibition (RPS6KA6 KD1 (human)): 0%; inhibition (SGK2 (human)): 0%; inhibition (SGK3 (human)): 0%; inhibition (STK32B (human)): 40% |
| 39% | 26% | 35% | 0% | 12% | 8% | 18% | 12% | 0% | 21% | 19% | 10% | 27% | 10% | 43% | 8% | 51% | 12% | 18% | 5% | Fc1ccc(Cl)cc1-c1nc(Nc2ccncc2)c2nccnc2n1 | inhibition (RPS6KA3 KD1 (human)): 12%; inhibition (RPS6KA4 KD1 (human)): 8%; inhibition (RPS6KA5 KD1 (human)): 24%; inhibition (RPS6KA6 KD1 (human)): 13%; inhibition (SGK2 (human)): 22%; inhibition (SGK3 (human)): 14%; inhibition (STK32B (human)): 15% |
| 2% | 0% | 0% | 2% | 7% | 14% | 4% | 0% | 0% | 0% | 0% | 0% | 4% | 0% | 1% | 0% | 0% | 2% | 0% | 0% | Nc1ccc(-c2cccc3c(=O)cc(N4CCOCC4)oc23)cc1 | inhibition (RPS6KA3 KD1 (human)): 0%; inhibition (RPS6KA4 KD1 (human)): 3%; inhibition (RPS6KA5 KD1 (human)): 2%; inhibition (RPS6KA6 KD1 (human)): 0%; inhibition (SGK2 (human)): 0%; inhibition (SGK3 (human)): 0%; inhibition (STK32B (human)): 0% |
| 5% | 0% | 0% | 0% | 0% | 3% | 0% | 0% | 0% | 0% | 7% | 0% | 16% | 15% | 7% | 0% | 0% | 4% | 2% | 2% | O=C(NC(NC(=S)Nc1ccc(F)c([N+](=O)[O-])c1)C(Cl)(Cl)Cl)C(c1ccccc1)c1ccccc1 (stereo not drawn) | inhibition (RPS6KA3 KD1 (human)): 0%; inhibition (RPS6KA4 KD1 (human)): 0%; inhibition (RPS6KA5 KD1 (human)): 2%; inhibition (RPS6KA6 KD1 (human)): 4%; inhibition (SGK2 (human)): 3%; inhibition (SGK3 (human)): 0%; inhibition (STK32B (human)): 8% |
